Consider 30 compounds from patent publication US20130261165A1, “PREVENTION AND TREATMENT OF DISEASES CHARACTERIZED BY MESENCEPHALIC DOPAMINERGIC NEURON CELL DEATH” (THE MCLEAN HOSPITAL CORPORATION, priority 2010, published 2013).

Structures are written as SMILES. Values joined by “and” are separate entries in the source; they are usually repeats but may differ in a detail not shown here. Identical values can stand only once. Counter-ions that a name gives are not always drawn.

Data set [1] has as its system En-1. Briefly: En-1 mRNA expression by qPCR in primary ventral midbrain cultures. Conditions: for fold induction at 10 µM: Mus musculus, 24 h, read-out: Fold Increase in En-1 Expression.
Description: (§5) One library consisting of FDA-approved and non-FDA approved drugs (NINDS) was screened for drugs with an ability to up-regulate En-1 and/or FoxA2 expression in neuronal cells. Candidate compounds were screened in a gene expression assay using a qPCR detection methodology in a primary ventral midbrain preparation of E12 mice.
(§6) To determine the extent of upregulation in the compounds of interest after initial screening, primary cultures of ventral midbrain cells of E12 CD1 mice were prepared. The embryonic ventral midbrains were removed and stored in HBSS on ice. The dissection time was less than 30-60 minutes. The ventral midbrain tissue was dissociated by removal of the HBSS and addition of 1 ml of 0.05% trypsin-EDTA for 10 minutes at 37° C. During incubation, the tissue and the trypsin-EDTA solution was mixed by occasional careful swirling of the tube. The reaction was stopped, the trypsin aspirated, and 1 ml of 50% HBSS/FBS was added. […] Candidate compound treatment was stopped by cell lysis. The mRNA was isolated and cDNA was synthesized using the Qiagen Turbocapture™ kit (Qiagen Inc., Valencia, Calif.) using Superscript III® reverse transcriptase (Life Technologies, Carlsbad, Calif.) according to manufacturer's protocol. En-1 and FOXA2 mRNA in the cultured cells was quantified using qPCR. […] Assay fluorescence was determined using a Step-One Plus fluorescence plate reader in 96-well plates at a standard reaction time for ramp speed.
(§7) The fold change in mRNA expression level was calculated according to the following formulas:
Fold change=2^−ΔΔCt wherein [1]
(§8) ΔΔCt=(Cttarget gene−Ct18S)treated−(Cttarget gene−Ct18S)untreated.
(§9) In formula 2, Cttarget gene refers to the Ct value determined for either En-1 or FOXA2 (as appropriate) and Ct18S refers to the Ct value determined for the mRNA encoding the 18S ribosomal subunit, each measured by qPCR.
In data set [2] the test system is FoxA2. Briefly: FoxA2 mRNA expression by qPCR in primary ventral midbrain cultures. Conditions: for fold induction at 10 µM: Mus musculus, 24 h, read-out: Fold Increase in FoxA2 Expression. Background: In qPCR the cycle at which signal appears reflects the starting amount.
Description: as §5, §6, §7
Fold change=2^−ΔΔCt wherein [1]
as §8, §9
The conditions of data set [3]: cited from earlier work.
The subject of data set [4] is En-1. The note with it: adult male C57 mice, 20 mg/kg/day subcutaneous for 12 days, n=8, qPCR vs GAPDH and β-actin, listed as duloxetine HCl, hydrochloride. The procedure:
(§1) Adult mice were treated with duloxetine HCl (20 mg/kg/day) by subcutaneous injection for 12 days (n=8). […] Data were obtained by qPCR analysis using GAPDH and β-actin as housekeeping genes followed by ΔΔCt calculation.
(§2) Duloxetine HCl (20 mg/kg/day) or saline vehicle was administrated subcutaneously into adult male C57 mice over a period of 12 days. […] Substantia nigra pars compacta was fresh dissected and snap frozen in RNA preserving solution in liquid nitrogen. […] Changes in mRNA expression due to duloxetine HCl treatment were determined by quantitative PCR using a Step One Plus Instrument and TaqMan® reagents (Applied Biosystems). […] Beta actin and GAPD were used as housekeeping genes and fold regulation was calculated using the delta Ct method.
(§3) ΔΔCt=(Cttarget gene−Cthousekeeping gene)treated−(Cttarget gene−Cthousekeeping gene)untreated
(§4) Untreated refers to combined cDNA from the saline treated animals. cDNA from each saline treated animal was also run against the pooled control cDNA.

Data set [5] concerns FoxA2. Conditions: adult male C57 mice, 20 mg/kg/day subcutaneous for 12 days, n=8, qPCR vs GAPDH and β-actin, listed as duloxetine HCl, hydrochloride. The procedure:
as §1, §2, §3, §4

Data set [6] has as its system FoxA2 positive dopaminergic neurons. The note with it: 10 μM pre-treatment 24 hours prior to 6-OHDA (1-50 μM); control = cells not exposed to toxin.
Description: The embryonic ventral midbrains were removed and stored in HBSS on ice. The dissection time was less than 30-60 minutes. The ventral midbrain tissue was dissociated by removal of the HBSS and the addition of 1 ml of 0.05% trypsin-EDTA for 10 minutes at 37° C. During incubation, the tissue and the trypsin-EDTA solution was mixed by occasional careful swirling of the tube. The reaction was stopped, the trypsin aspirated, and 1 ml of 50% HBSS/FBS was added. […] The tissue was triturated using an autoclaved glass pasteur pipette with narrowed opening and a stripettor. The cell suspension was centrifuged at 1000 rpm for 5 min, the supernatant aspirated, and the cells resuspended in E12 media. Twenty-five thousand cells per well were plated in 96 well PLO/laminin coated black-wall imaging plates (Costar) and incubated for 6 days without candidate compound treatment. […] 6-hydroxydopamine hydrobromide (6-OHDA) (Sigma) was reconstituted in ascorbic acid and PBS and added at concentrations of 1-50 μM to the cultures. […] Cultures were stained for tyrosine hydroxylase, FoxA2 and Hoechst and visualized using alexa fluor secondary antibodies. Cultures were analyzed by high content analysis (using an InCell 2000 instrument). The percentage of FoxA2 positive dopaminergic neurons were documented.
[7] abbreviates: primary ventral midbrain cells of E12 CD1 mice, 10 μM for 24 hours, qPCR vs 18S.

On to `C#CCN(C)Cc1ccccc1` [Pargyline hydrochloride], for which the fold induction at 10 µM in data set [1] stood at 1.73; in data set [2], 1.27.
As for `COc1ccccc1OCC(O)COC(N)=O` (stereo not drawn) [Methocarbamol], the fold induction at 10 µM was 1.83 in data set [1] and 2.3 in data set [2].
For `c1ccc2c(c1)CCCC2C1=NCCN1` (stereo not drawn) [Tetrahydrozoline hydrochloride], in that order: 1.06 and 2.06.
Take `CC(N)C12CC3CC(CC(C3)C1)C2` (stereo not drawn) [Rimantadine hydrochloride]: the fold induction at 10 µM in data set [1] was 1.3; in data set [2] it was 2.7.
On to `CCOC(=O)[C@H](CCc1ccccc1)N[C@@H](C)C(=O)N1[C@H](C(=O)O)C[C@H]2CCCC[C@@H]21` [Trandolapril], for which the fold induction at 10 µM in data set [1] came out at 17.9.
Take `Cn1cc[nH]c1=S` [Methimazole]: the fold induction at 10 µM in data set [1] is 0.2; in data set [2] it was 1.97.
Turning to `NNCCc1ccccc1` [Phenelzine sulfate], the fold induction at 10 µM in data set [2] was 2.5.
For `CCN1CCCC1CNC(=O)c1cc(S(N)(=O)=O)ccc1OC` (stereo not drawn) [Sulpiride], the figures for the fold induction at 10 µM in data set [1] and in data set [2] were 1.4 and 1.7, respectively.
For `O=C1CC[C@@]2(O)[C@H]3Cc4ccc(O)c5c4[C@@]2(CCN3CC2CC2)[C@H]1O5` [Naltrexone hydrochloride], in that order: 2.09 and 3.39.
Take `CC(=O)O[C@]1(C(C)=O)CC[C@H]2[C@@H]3C=C(C)C4=CC(=O)CC[C@]4(C)[C@H]3CC[C@@]21C` [Megestrol acetate]: the fold induction at 10 µM came to 2.14 in data set [1] and 1.89 in data set [2].
Regarding `CC1(C)O[C@@H]2C[C@H]3[C@@H]4C[C@H](F)C5=CC(=O)CC[C@]5(C)[C@H]4[C@@H](O)C[C@]3(C)[C@]2(C(=O)CO)O1` [Flurandrenolide], the fold induction at 10 µM in data set [1] was determined as 1.5; in data set [2] it was 1.9.
As to `CNCC[C@H](Oc1cccc2ccccc12)c1cccs1` [Duloxetine], in data set [3] (pH 1.0, within one hour), the “dosage hydrolyzed to 1-naphthol” value is recorded as 50%. The “dosage degraded to 1-naphthol” value in data set [3] (pH 2.0, in one hour) is 10%. Besides, in data set [3] (pH 4.0), the “time for 10% degradation” value is listed as “up to 63 hours”.
For `Cc1cc(=O)[nH]c(=S)[nH]1` [Methylthiouracil], in data set [2], the fold induction at 10 µM worked out at 2.34.
As to `Cc1ccccc1C(OCCN(C)C)c1ccccc1` (stereo not drawn) [Orphenadrine citrate], the fold induction at 10 µM was found to be 1.69 in data set [1] and 1.82 in data set [2].
`CCC1(c2ccccc2)C(=O)NCNC1=O` [Primidone]: the fold induction at 10 µM in data set [1] was found to be 0.86; in data set [2], 1.43.
As to `CC(=O)c1ccc(S(=O)(=O)NC(=O)NC2CCCCC2)cc1` [Acetohexamide], the fold induction at 10 µM worked out at 2.3 in data set [1] and 3 in data set [2].
For `O=C(O)c1ccccc1Nc1cccc(C(F)(F)F)c1` [Flufenamic acid], in that order: 2.6 and 3.4.
For the compound `CNCC[C@H](Oc1cccc2ccccc12)c1cccs1` [Duloxetine hydrochloride], the “En-1 mRNA expression in substantia nigra, fold increase” value in data set [4] was 1.98 fold and 1.98±0.098 fold. In data set [5], the “FoxA2 mRNA expression in substantia nigra, fold increase” value is 2.19 fold and 2.19±0.23 fold. Further, the “DA neuron survival as a percentage of control” value in data set [6] came out at 107%. Also, the fold induction at 10 µM in data set [1] was determined as 19; in data set [2], 49.5.
With `CC(=O)S[C@@H]1CC2=CC(=O)CC[C@]2(C)[C@H]2CC[C@@]3(C)[C@@H](CC[C@@]34CCC(=O)O4)[C@H]12` [Spironolactone], the fold induction at 10 µM in data set [1] stood at 1.34; in data set [2] it was 1.74.
Regarding `CC(CCc1ccccc1)NC(C)C(O)c1ccc(O)cc1` (stereo not drawn) [Nylidrin hydrochloride], in data set [2], the fold induction at 10 µM is 1.7.
As for `c1ccc2c(CC3=NCCN3)cccc2c1` [Naphazoline hydrochloride], the values for the fold induction at 10 µM in data set [1] and in data set [2] were 8.95 and 1.99, respectively.
As to `CO[C@@]1(NC(=O)C(C(=O)O)c2ccc(O)cc2)C(=O)N2C(C(=O)O)=C(CSc3nnnn3C)CO[C@@H]21` (stereo partly drawn) [Moxalactam disodium], the fold induction at 10 µM in data set [1] is 4.34; in data set [2], 7.31.
As for `CCCc1cc(=O)[nH]c(=S)[nH]1` [Propylthiouracil], the fold induction at 10 µM came to 1.3 in data set [1] and 1.68 in data set [2].
In the case of `C[C@H]1C[C@@H]2[C@H]([C@@H](O)C[C@@]3(C)[C@H]2CC[C@]3(O)C(=O)CO)[C@@]2(C)C=CC(=O)C=C12` [Methylprednisolone], the fold induction at 10 µM in data set [1] is 1.38; in data set [2], 1.41.
For `c1ccc(CC2=NCCN2)cc1` [Tolazoline hydrochloride], in that order: 2.51 and 2.67.
For the compound `COc1ccc2c(c1OC)C(=O)O[C@@H]2[C@H]1c2c(cc3c(c2OC)OCO3)CCN1C` [Noscapine hydrochloride], the fold induction at 10 µM amounted to 1.83 in data set [1] and 1.45 in data set [2].
`NC(=O)c1cc([N+](=O)[O-])cc([N+](=O)[O-])c1` [Nitromide]: the “Fold Increase in En-1 Expression” value in data set [1] (setting [7]) is reported as 0.28 Fold. Also, the “Fold Increase in FoxA2 Expression” value in data set [2] (setting [7]) was determined as 1.55 Fold.
Consider `C[N+]1(C)[C@@H]2C[C@@H](OC(=O)[C@H](CO)c3ccccc3)C[C@H]1[C@@H]1O[C@@H]12` [Methscopolamine bromide], for which the fold induction at 10 µM in data set [1] and in data set [2] was 1.9 in each case.
With `CCCCNC(=O)NS(=O)(=O)c1ccc(C)cc1` [Tolbutamide], the values for the fold induction at 10 µM in data set [1] and in data set [2] were 21.6 and 35, respectively.
Take `CC(C)NCC(O)COc1cccc2[nH]ccc12` (stereo not drawn) [Pindolol]: the figures for the fold induction at 10 µM in data set [1] and in data set [2] were 9.8 and 44.1, respectively.
